According to patent publication US5140018A, “1,3,2-benzodithiazole-1-oxide compounds” (Abbott Laboratories, priority 1991, dated 1992):
Converted amounts (≈) assume the structure as drawn. Like-named read-outs stand apart in the source and are kept apart here.

How the values were obtained:
fungi = details: cited from earlier work
[1] = system: Candida albicans ATCC 10231; test: In vitro antifungal MIC, Candida albicans ATCC 10231; assay type: cell-based
Method: (§1) The in vitro antifungal activity of the compounds of the present invention against a variety of fungiwas determined as follow: Test medium was prepared by dissolving first 5 g of dextrose and then 6.7 g of Bacto Yeast Nitrogen Base® (commercially available from Difco Laboratories) in 100 mL of distilled water. The solution was filter-sterilized and diluted 1:10 with 0.01M pH 8.0 phosphate buffer solution, and the final pH of the medium adjusted to about pH 7.0 when necessary with either 0.1N hydrochloric acid solution of 0.1N sodium hydroxide solution. […] These concentrated stock solutions were diluted to a concentration of 200 μg/mL (twice the highest concentration desired for testing) with the test medium. Amphotericin B, similarly prepared, was used as a reference antifungal agent.
(§2) The test organisms were then inoculated into test tubes containing approximately 3 to 10 mL of test medium and the test tubes incubated overnight at 37° C. A sample of each overnight culture was placed in a test tube and diluted using the test medium until a reading of 95% transmittance was obtained in a conventional UV/visible spectrophotometer set to 560 nm. The adjusted cultures were then diluted 1:50 with test medium. These diluted cultures served as the inocula for the assays which follow and were used within 15 minutes of preparation.
(§3) Next, 2-fold serial dilutions of each test compound in test medium were prepared in a 96-well microtiter plate using calibrated microdiluters attached to an automatic (hand-held) diluter (available from Dynatech Laboratories).
(§4) Using sterile calibrated droppers or a multi-point dispenser, the diluted inoculum suspension was added to each of the wells in the plate. When inoculation was complete, the microtiter tray was covered with a plastic plate sealer to minimize evaporation. After the plate had been sealed, a hole was made above each well with a sterile 26-gauge syringe needle in order to allow gas exchange. If plate sealers were not available, the microtiter trays were stacked in groups of five or less with an empty tray on top. The microtiter trays were then incubated in a humidified chamber at 35°-37° C. for 48 hours or until growth was visible in the growth control wells.
(§5) The minimum inhibitory concentration (MIC) was defined as the lowest concentration of test compound yielding no growth, a slight haze or sparsely isolated colonies on the inoculum spot as compared to the growth control containing no test compound.

[2] = in vivo, cited from earlier work
Candida albicans CCH 442 = test: In vitro antifungal MIC, Candida albicans CCH 442; assay type: cell-based
Method: as §1, §2, §3, §4, §5

[3] = system: Aspergillus niger ATCC 16404; test: In vitro antifungal MIC, Aspergillus niger ATCC 16404; assay type: cell-based
Method: as §1, §2, §3, §4, §5

Candida kefyr ATCC 28838 = test: In vitro antifungal MIC, Candida kefyr ATCC 28838; assay type: cell-based; details: Kluyveromyces marxianus
Method: as §1, §2, §3, §4, §5

Candida albicans 579A = test: In vitro antifungal MIC, Candida albicans 579A; assay type: cell-based
Method: as §1, §2, §3, §4, §5

[4] = system: Candida tropicalis NRRL-Y-112; test: In vitro antifungal MIC, Candida tropicalis NRRL-Y-112; assay type: cell-based
Method: as §1, §2, §3, §4, §5

[5] = system: Cryptococcus albidus ATCC 34140; test: In vitro antifungal MIC, Cryptococcus albidus ATCC 34140; assay type: cell-based; details: Naganishia albida
Method: as §1, §2, §3, §4, §5

[6] = system: Torulopsis glabrata ATCC 15545; test: In vitro antifungal MIC, Torulopsis glabrata ATCC 15545; assay type: cell-based; details: Nakaseomyces glabratus
Method: as §1, §2, §3, §4, §5

kidney function = details: patients treated with amphotericin B; cited from earlier work
[7] = system: Candida albicans ATCC 62376; test: In vitro antifungal MIC, Candida albicans ATCC 62376; assay type: cell-based
Method: as §1, §2, §3, §4, §5

[8] = system: Candida albicans ATCC 38247; test: In vitro antifungal MIC, Candida albicans ATCC 38247; assay type: cell-based
Method: as §1, §2, §3, §4, §5

[9] = in vivo; cited from earlier work
[10] = system: biosynthesis of testosterone; details: cited from earlier work
[11] = Candida albicans, ATCC10231, 48 h
[12] = Aspergillus niger, ATCC16404, 48 h
[13] = Candida tropicalis, NRRLY112, 48 h
[14] = Candida albicans, ATCC62376, 48 h
[15] = Candida albicans, ATCC38247, 48 h
[16] = ATCC10231, Candida albicans ATCC 10231, 35°-37° C., 48 hours, read-out: MIC
[17] = CCH442, Candida albicans CCH 442, 35°-37° C., 48 hours, read-out: MIC
[18] = ATCC16404, Aspergillus niger ATCC 16404, 35°-37° C., 48 hours, read-out: MIC
[19] = ATCC28838, Candida kefyr ATCC 28838, 35°-37° C., 48 hours, read-out: MIC
[20] = Candida albicans 579A, 35°-37° C., 48 hours, read-out: MIC
[21] = NRRLY112, Candida tropicalis NRRL-Y-112, 35°-37° C., 48 hours, read-out: MIC
[22] = ATCC34140, Cryptococcus albidus ATCC 34140, 35°-37° C., 48 hours, read-out: MIC
[23] = ATCC15545, Torulopsis glabrata ATCC 15545, 35°-37° C., 48 hours, read-out: MIC
[24] = ATCC62376, Candida albicans ATCC 62376, 35°-37° C., 48 hours, read-out: MIC
[25] = ATCC38247, Candida albicans ATCC 38247, 35°-37° C., 48 hours, read-out: MIC

| SMILES | MIC [1, 16] | MIC (Candida albicans CCH 442; [17]) | MIC [3, 18] | MIC (Candida kefyr ATCC 28838; [19]) | MIC (Candida albicans 579A; [20]) | MIC [4, 21] | MIC [5, 22] | MIC [6, 23] | MIC [7, 24] | MIC [8, 25] | further results |
| --- | --- | --- | --- | --- | --- | --- | --- | --- | --- | --- | --- |
| C[C@@H]1[C@H](O)[C@@H](C)/C=C/C=C/C=C/C=C/C=C/C=C/C=C/[C@H](O[C@@H]2O[C@H](C)[C@@H](O)[C@H](N)[C@@H]2O)C[C@@H]2O[C@](O)(C[C@@H](O)C[C@@H](O)[C@H](O)CC[C@@H](O)C[C@@H](O)CC(=O)O[C@H]1C)C[C@H](O)[C@H]2C(=O)O [Amphotericin B, reference compound] | – | – | – | – | – | – | – | – | – | – | fungistatic/fungicidal action (fungi): fungicidal; MIC [1, 11]: 1.56 µg/mL (≈ 1.69 µM); oral bioavailability ([2]; po): poor; MIC (Candida albicans CCH 442; Candida albicans, CCH442, 48 h): 1.56 µg/mL (≈ 1.69 µM); MIC [3, 12]: 3.12 µg/mL (≈ 3.38 µM); MIC (Candida kefyr ATCC 28838; ATCC28838, 48 h): 1.56 µg/mL (≈ 1.69 µM); MIC (Candida albicans 579A; Candida albicans, 579A, 48 h): 1.56 µg/mL (≈ 1.69 µM); MIC [4, 13]: 1.56 µg/mL (≈ 1.69 µM); MIC ([5]; ATCC34140, 48 h): 3.12 µg/mL (≈ 3.38 µM); MIC ([6]; ATCC15545, 48 h): 3.12 µg/mL (≈ 3.38 µM); patients experiencing impaired kidney function (kidney function): 80%; MIC [7, 14]: 1.56 µg/mL (≈ 1.69 µM); MIC [8, 15]: 12.5 µg/mL (≈ 13.5 µM); mammalian toxicity [9]: considerable; untoward effects [9]: anaphylaxis, thrombocytopenia, flushing, generalized pain, convulsions, chills, fever, phlebitis, headache, anemia, anorexia and decreased kidney function |
| CC(=O)N1CCN(c2ccc(OCC3COC(Cn4ccnc4)(c4ccc(Cl)cc4Cl)O3)cc2)CC1 (stereo not shown) [Ketoconazole] | – | – | – | – | – | – | – | – | – | – | fungistatic/fungicidal action (fungi): fungistatic and not fungicidal; inhibition of testosterone biosynthesis [10]: inhibitors of the biosynthesis of testosterone; oral activity ([2]; po): orally active; absorption into the cerebrospinal fluid [2]: poorly absorbed; hepatotoxicity [9]: hepatotoxins |
| COC(=O)CCCCCCCN1Sc2ccccc2[S+]1[O-] (stereo not shown) [Example 26] | 1.56 µg/mL (≈ 4.76 µM) | 3.12 µg/mL (≈ 9.53 µM) | 0.78 µg/mL (≈ 2.38 µM) | 0.78 µg/mL (≈ 2.38 µM) | 3.12 µg/mL (≈ 9.53 µM) | 3.12 µg/mL (≈ 9.53 µM) | 6.25 µg/mL (≈ 19.1 µM) | 3.12 µg/mL (≈ 9.53 µM) | 1.56 µg/mL (≈ 4.76 µM) | 12.5 µg/mL (≈ 38.2 µM) | – |
| [O-][S+]1c2ccccc2SN1Cc1cccs1 (stereo not shown) [Example 34, 2-(2-thienyl)methyl-1,3,2-benzodithiazole-1-oxide] | 1.56 µg/mL (≈ 5.83 µM) | 0.78 µg/mL (≈ 2.92 µM) | 0.39 µg/mL (≈ 1.46 µM) | 0.78 µg/mL (≈ 2.92 µM) | 0.78 µg/mL (≈ 2.92 µM) | 50 µg/mL (≈ 187 µM) | 6.25 µg/mL (≈ 23.4 µM) | 50 µg/mL (≈ 187 µM) | 0.78 µg/mL (≈ 2.92 µM) | 1.56 µg/mL (≈ 5.83 µM) | – |
| CCCCCN1Sc2ccccc2[S+]1[O-] (stereo not shown) [Example 4, 2-n-pentyl-1,3,2-benzodithiazole-1-oxide] | 0.78 µg/mL (≈ 3.23 µM) | 0.78 µg/mL (≈ 3.23 µM) | 0.39 µg/mL (≈ 1.62 µM) | 0.78 µg/mL (≈ 3.23 µM) | 0.78 µg/mL (≈ 3.23 µM) | 50 µg/mL (≈ 207 µM) | 6.25 µg/mL (≈ 25.9 µM) | 0.78 µg/mL (≈ 3.23 µM) | 0.78 µg/mL (≈ 3.23 µM) | 3.12 µg/mL (≈ 12.9 µM) | – |
| [O-][S+]1c2ccccc2SN1C1CCCCCCC1 (stereo not shown) [Example 28, 2-cyclooctyl-1,3,2-benzodithiazole-1-oxide] | 3.12 µg/mL (≈ 11.1 µM) | 3.12 µg/mL (≈ 11.1 µM) | 0.78 µg/mL (≈ 2.77 µM) | 0.39 µg/mL (≈ 1.39 µM) | 3.12 µg/mL (≈ 11.1 µM) | 3.12 µg/mL (≈ 11.1 µM) | 12.5 µg/mL (≈ 44.4 µM) | 3.12 µg/mL (≈ 11.1 µM) | 3.12 µg/mL (≈ 11.1 µM) | 6.25 µg/mL (≈ 22.2 µM) | – |
| [O-][S+]1c2ccccc2SN1CCCc1ccccc1 (stereo not shown) [Example 39, 2-(3-phenylpropyl)-1,3,2-benzodithiazole-1-oxide] | 1.56 µg/mL (≈ 5.39 µM) | 3.12 µg/mL (≈ 10.8 µM) | 1.56 µg/mL (≈ 5.39 µM) | 1.56 µg/mL (≈ 5.39 µM) | 3.12 µg/mL (≈ 10.8 µM) | 6.25 µg/mL (≈ 21.6 µM) | 25 µg/mL (≈ 86.4 µM) | 3.12 µg/mL (≈ 10.8 µM) | 3.12 µg/mL (≈ 10.8 µM) | 12.5 µg/mL (≈ 43.2 µM) | – |
| [O-][S+]1c2ccccc2SN1CCO (stereo not shown) [Example 18, 2-(2-hydroxyethyl)-1,3,2-benzodithiazole-1-oxide] | 12.5 µg/mL (≈ 58.1 µM) | 12.5 µg/mL (≈ 58.1 µM) | 6.25 µg/mL (≈ 29 µM) | 0.78 µg/mL (≈ 3.62 µM) | 12.5 µg/mL (≈ 58.1 µM) | 12.5 µg/mL (≈ 58.1 µM) | 1.56 µg/mL (≈ 7.25 µM) | 6.25 µg/mL (≈ 29 µM) | 25 µg/mL (≈ 116 µM) | 1.56 µg/mL (≈ 7.25 µM) | – |
| [O-][S+]1c2ccccc2SN1c1ccccc1 (stereo not shown) [Example 30, 2-phenyl-1,3,2-benzodithiazole-1-oxide] | 25 µg/mL (≈ 101 µM) | 25 µg/mL (≈ 101 µM) | 12.5 µg/mL (≈ 50.5 µM) | 12.5 µg/mL (≈ 50.5 µM) | 12.5 µg/mL (≈ 50.5 µM) | 25 µg/mL (≈ 101 µM) | 25 µg/mL (≈ 101 µM) | 25 µg/mL (≈ 101 µM) | 25 µg/mL (≈ 101 µM) | 25 µg/mL (≈ 101 µM) | – |
| CC[Si](CC)(CC)OCCN1Sc2ccccc2[S+]1[O-] (stereo not shown) [Example 20, 2-(2-(triethylsilyloxy)ethyl)-1,3,2-benzodithiazole-1-oxide] | – | – | – | – | – | – | – | – | – | – | MIC [1, 11]: 25 µg/mL (≈ 75.9 µM); MIC (Candida albicans CCH 442; Candida albicans, CCH442, 48 h): 50 µg/mL (≈ 152 µM); MIC [3, 12]: 12.5 µg/mL (≈ 37.9 µM); MIC (Candida kefyr ATCC 28838; ATCC28838, 48 h): 1.56 µg/mL (≈ 4.73 µM); MIC (Candida albicans 579A; Candida albicans, 579A, 48 h): 25 µg/mL (≈ 75.9 µM); MIC [4, 13]: 25 µg/mL (≈ 75.9 µM); MIC ([5]; ATCC34140, 48 h): 12.5 µg/mL (≈ 37.9 µM); MIC ([6]; ATCC15545, 48 h): 25 µg/mL (≈ 75.9 µM); MIC [7, 14]: 25 µg/mL (≈ 75.9 µM); MIC [8, 15]: 3.12 µg/mL (≈ 9.47 µM) |
